Assay results: ChEMBL document CHEMBL4371037, “5-Substituted-N-pyridazinylbenzamides as potent and selective LRRK2 inhibitors: Improved brain unbound fraction enables efficacy” (Bioorg Med Chem Lett, 2019)

Tests used:
[1] = Lipophilicity, log D of the compound at pH 7.4 by chromatographic method; format: physicochemical; details: buffer
[2] = Intrinsic clearance in human liver microsomes; format: ADME, Microsome
[3] = Drug level in naive rat brain at 5 mg/kg, iv administered as bolus dose followed by 5 ml/kg/hr iv infusion for 4 hrs; format: ADME, organism-based; details: read-out: Drug uptake
[4] = Brain to blood partition coefficient, Kp of the compound in naive rat at 5 mg/kg, iv administered as bolus dose followed by 5 ml/kg/hr iv infusion for 4 hrs; format: ADME, organism-based
[5] = Drug level in naive rat spleen at 5 mg/kg, iv administered as bolus dose followed by 5 ml/kg/hr iv infusion for 4 hrs; format: ADME, organism-based; details: read-out: Drug uptake
[6] = Unbound brain-to-plasma concentration ratio in naive rat at 5 mg/kg, iv administered as bolus dose followed by 5 ml/kg/hr iv infusion for 4 hrs; format: ADME, organism-based; details: read-out: K(p,uu,brain)
[7] = Drug level in naive rat kidney at 5 mg/kg, iv administered as bolus dose followed by 5 ml/kg/hr iv infusion for 4 hrs; format: ADME, organism-based; details: read-out: Drug uptake
[8] = Drug level in naive rat blood at 5 mg/kg, iv administered as bolus dose followed by 5 ml/kg/hr iv infusion for 4 hrs; format: ADME, organism-based; details: read-out: Drug uptake

| chromatographic logD [1] | CLH [2] [mL/min/g] | SMILES | further results |
| --- | --- | --- | --- |
| 8.7 | – | O=C(Nc1cccc(Cl)c1)c1cc(C(F)(F)F)ccc1OCc1ccc(F)cc1 | – |
| 4.4 | 11.8 | O=C(Nc1ccnnc1)c1cc(N2CC(F)C2)ccc1OCc1ccccc1 | – |
| 4.5 | 5.5 | N#CC1CCN(c2ccc(OCc3ccccc3)c(C(=O)Nc3ccnnc3)c2)CC1 | – |
| 1.9 | 0.4 | O=C(Nc1ccnnc1)c1cc(N2CCNCC2)ccc1OCc1ccccc1 | – |
| 3.8 | 1.3 | COCCN1CCN(c2ccc(OCc3ccccc3)c(C(=O)Nc3ccnnc3)c2)CC1 | – |
| 8.2 | – | O=C(Nc1cccc(F)c1)c1cc(C(F)(F)F)ccc1OCc1ccc(F)cc1 | – |
| 6.3 | – | O=C(Nc1ccnnc1)c1cc(N2CCCCC2)ccc1OCc1ccccc1 | – |
| 5.4 | 2.2 | C[C@@H]1CN(c2ccc(OCc3ccccc3)c(C(=O)Nc3ccnnc3)c2)C[C@H](C)O1 | – |
| 3 | 1.6 | CN1CCN(c2ccc(OCc3ccccc3)c(C(=O)Nc3ccnnc3)c2)CC1 | – |
| 4.5 | – | C[C@@H]1COCCN1c1ccc(OCc2ccccc2)c(C(=O)Nc2ccnnc2)c1 | – |
| 4.5 | 4.3 | O=C(Nc1ccnnc1)c1cc(N2C[C@H]3COC[C@H]3C2)ccc1OCc1ccccc1 | – |
| 4.1 | 2.1 | O=C(Nc1ccnnc1)c1cc(N2CCOCC2)ccc1OCc1ccccc1 | concentration at 4 h [3]: 1630 ng/g; Kp at 4 h [4]: 1.44; concentration at 4 h [5]: 1680 ng/g; Kp uu at 4 h [6]: 0.51; concentration at 4 h [7]: 3970 ng/g; concentration at 4 h [8]: 1130 ng/mL |
| 3.2 | 0.6 | O=C(Nc1ccnnc1)c1cc(N2CCC(O)CC2)ccc1OCc1ccccc1 | – |
| 5.4 | – | O=C(Nc1ccnnc1)c1cc(C(F)(F)F)ccc1OCc1ccccc1 | – |
| 5.1 | 9.5 | O=C(Nc1ccnnc1)c1cc(N2CC(F)(F)C2)ccc1OCc1ccccc1 | – |
| 2.9 | < 0.78 | COCCN1CCC(c2ccc(OCc3ccccc3)c(C(=O)Nc3ccnnc3)c2)CC1 | – |
| 6.3 | – | O=C(Nc1cccnc1)c1cc(C(F)(F)F)ccc1OCc1ccccc1 | – |
| 5.1 | 5.5 | O=C(Nc1ccnnc1)c1cc(N2CCC(F)CC2)ccc1OCc1ccccc1 | – |
| 3.5 | 1 | O=C(Nc1ccnnc1)c1cc(N2CCC(CO)CC2)ccc1OCc1ccccc1 | – |
| 6.3 | – | O=C(Nc1cccnc1)c1cc(C(F)(F)F)ccc1OCc1ccc(F)cc1 | – |
| 8.8 | – | O=C(Nc1cccc(Cl)c1)c1cc(C(F)(F)F)ccc1OCc1ccccc1 | – |
| 7.5 | – | N#Cc1cccc(NC(=O)c2cc(C(F)(F)F)ccc2OCc2ccc(F)cc2)c1 | – |
| 2.2 | – | CN1CC2(CCN(c3ccc(OCc4ccccc4)c(C(=O)Nc4ccnnc4)c3)CC2)C1 | – |
| 6.1 | 9.8 | O=C(Nc1ccnnc1)c1cc(N2CCCC2)ccc1OCc1ccccc1 | – |
| 2 | – | CN1CC2(C1)CN(c1ccc(OCc3ccccc3)c(C(=O)Nc3ccnnc3)c1)C2 | – |
| 2.3 | – | CN1CCC(c2ccc(OCc3ccccc3)c(C(=O)Nc3ccnnc3)c2)CC1 | – |
